# Measurements as given in patent US20080233558A1, “Inhibitors of viral entry screening method” (priority 2005, published 2008).
# Experiments:
# [1] = tested on: MLV(VSV-G Env) pseudotype particles; type: cell-based
# [2] = tested on: MLV(VSV-G Env) particles that transduce a gfp-gene; type: cell-based
# [3] = tested on: MLV(VSV-G Env) pseudotype particles; type: cell-based; remark: listed apart in the source
# [4] = tested on: indicator cells (HEK293T expressing tPA-HA); conditions: increasing inhibitor concentrations up to 1 mM; due to cytotoxic effects
smiles,measurement,setting,value
Cc1cn([C@H]2C[C@H](N=[N+]=[N-])[C@@H](CO)O2)c(=O)[nH]c1=O [AZT],fluorescence readout signal with increasing concentrations of the inhibitor,[1],increased signal intensities
same,readout signal at concentrations higher than the optimal concentration,[1],decreased readout signals
same,gfp fluorescence signal at the highest inhibitor concentration,[2],lowest fluorescence signal
same,cell populations after α-HA antibody staining,[3],just one (fluorescence positive) population
same,fluorescence signal of indicator cells in absence of any particles,[4],decreasing fluorescence intensities
